The record followed here is patent US20250136722A1, “CYTOTOXICITY TARGETING CHIMERAS” (GLAXOSMITHKLINE INTELLECTUAL PROPERTY DEVELOPMENT LIMITED, priority 2021, published 2025).

Structures can show the parent of a compound that is named as a salt.

In the assay the target is T1, CHOK1 cells engineered to overexpress human CCR2 (Homo sapiens, UniProt P41597).
T1 construct: expressed in transfected cells; host or cells: CHOK1 cells
Nature of the assay: Antibody dependent cellular cytotoxicity (ADCC) reporter assay (Example 199). The class given is cell-based. As to conditions: with anti-cotinine antibody SEQ ID NO: 11/12; CHOK1-human CCR2 target cells, Jurkat FcγRIIIa NFAT-luciferase reporter cells; 12-18 hours; read-out: ADCC Reporter Assay pEC50 (converted). How it is done:
An antibody dependent cellular cytoxicity reporter assay was conducted using the following four assay components: (i) ARM compound of Formula (I) targeting CCR2 (concentrations ranging from 1 pM to 10 μM) (ii) anti-cotinine antibody having a heavy chain sequence of SEQ ID NO: 11 and a light chain sequence of SEQ ID NO: 12 (rabbit variable region with human IgG1 Fc domain containing a DE mutation (S239D/1332E)) (concentrations ranging from 0.01 μg/mL to 200 μg/mL); (iii) target cells: CHOK1 cells engineered to overexpress either human CCR2 (typically 1000-20,000 cells per well) and (iv) reporter cells: Jurkat cells engineered to express FcγRIIIa with the reporter gene luciferase under the control of the NFAT promoter (typically 3000-75,000 cells per well). Reagents were combined in a final volume of 20 μL in a 384-well tissue culture treated plate. All four assay components were incubated together for about 12-18 hours. Thereafter, BioGlo Detection reagent (Promega) was added to the wells to lyse the cells and provide a substrate for the luciferase reporter protein. Luminescence signal was measured on a microplate reader and signal:background was calculated by dividing the signal of a test well by the signal obtained when no heterobivalent compound of Formula (I) was added. EC50 calculations were done using Graphpad Prism Software, specifically a nonlinear regression curve fit (Y=Bottom+(Top−Bottom)/(1+10^((Log EC50−X)*HillSlope))).
ARMs compounds of Formula (I) of the invention were tested for ADCC activity in the above assay in or more experimental runs and the results are shown in Table 3 below. Potency of the compounds of Formula (I) of the invention is reported as a pEC50 value. The pEC50 value is the negative log of the EC50 value, wherein the EC50 value is the half maximal effective concentration measured in molar (M). For compounds tested in more than one experimental run, the pEC50 value is reported as an average.
In the case of `CN1C(=O)C[C@H](C(=O)NCCC(=O)NCCOCCOCCC(=O)N[C@H]2CC[C@@H](C(=O)N[C@@H]3C[C@H](NC(C)(C)C)CC[C@@H]3N3CC[C@H](Nc4ncnc5ccc(C(F)(F)F)cc45)C3=O)CC2)[C@H]1c1cccnc1` [Example 51], the EC50 is 2 nM.
The same measure for `CC(C)N(C)[C@@H]1CC[C@H](N2CC[C@H](Nc3ncnc4ccc(C(F)(F)F)cc34)C2=O)[C@H](NC(=O)CCCCCCCCC(=O)NCCCCCCCCCCNC(=O)[C@H]2CC(=O)N(C)[C@@H]2c2cccnc2)C1` [Example 165, N^1-((1R,2S,5R)-5-(isopropyl(methyl)amino)-2-((S)-2-oxo-3-((6-(trifluoromethyl)quinazolin-4-yl)amino)pyrrolidin-1-yl)cyclohexyl)-N^10-(10-((2S,3S)-1-methyl-5-oxo-2-(pyridin-3-yl)pyrrolidine-3-carboxamido)decyl)decanediamide]: 1.26 nM; for `CC(C)N(C)[C@@H]1CC[C@H](N2CC[C@H](Nc3ncnc4ccc(C(F)(F)F)cc34)C2=O)[C@H](NC(=O)CCCCCCCCNCCOCCOCCOCCOCCNC(=O)[C@H]2CC(=O)N(C)[C@@H]2c2cccnc2)C1` [Example 195, (2S,3S)-N-(24-(((1R,2S,5R)-5-(Isopropyl(methyl)amino)-2-((S)-2-oxo-3-((6-(trifluoromethyl)quinazolin-4-yl)amino)pyrrolidin-1-yl)cyclohexyl)amino)-24-oxo-3,6,9,12-tetraoxa-15-azatetracosyl)-1-methyl-5-oxo-2-(pyridin-3-yl)pyrrolidine-3-carboxamide, 3Trifluoroacetic acid salt]: 0.158 nM; for `CC(C)N(C)[C@@H]1CC[C@H](N2CC[C@H](Nc3ncnc4ccc(C(F)(F)F)cc34)C2=O)[C@H](NC(=O)C2CCC(N3CCC(S(=O)(=O)NCCCCCCNC(=O)[C@H]4CC(=O)N(C)[C@@H]4c4cccnc4)CC3)CC2)C1` (single isomer, unassigned) [Example 148]: 3.16 nM.
For `CC(C)N(C)[C@@H]1CC[C@H](N2CC[C@H](Nc3ncnc4ccc(C(F)(F)F)cc34)C2=O)[C@H](NC(=O)[C@H]2CC[C@@H](NC(=O)C3CCC4(CC3)CCN(C(=O)[C@H]3CC(=O)N(C)[C@@H]3c3cccnc3)CC4)CC2)C1` [Example 95, N-((1 S,4R)-4-(((1R,2S,5R)-5-(Isopropyl(methyl)amino)-2-((S)-2-oxo-3-((6-(trifluoromethyl)quinazolin-4-yl)amino)pyrrolidin-1-yl)cyclohexyl)carbamoyl)cyclohexyl)-3-((2S,3S)-1-methyl-5-oxo-2-(pyridin-3-yl)pyrrolidine-3-carbonyl)-3-azaspiro[5.5]undecane-9-carboxamide], the EC50 was 6.31 nM.
The same measure for `CC(C)N(C)[C@@H]1CC[C@H](N2CC[C@H](Nc3ncnc4ccc(C(F)(F)F)cc34)C2=O)[C@H](NC(=O)[C@H]2CC[C@H](N3CCN(CCCCCCCCNC(=O)[C@H]4CC(=O)N(C)[C@@H]4c4cccnc4)CC3)CC2)C1` [Example 146]: 0.251 nM; for `CC(C)N(C)[C@@H]1CC[C@H](N2CC[C@H](Nc3ncnc4ccc(C(F)(F)F)cc34)C2=O)[C@H](NC(=O)c2cnn(C3CCN(CCOCCOCCNC(=O)[C@H]4CC(=O)N(C)[C@@H]4c4cccnc4)CC3)c2)C1` [Example 92, N-((1R,2S,5R)-5-(Isopropyl(methyl)amino)-2-((S)-2-oxo-3-((6-(trifluoromethyl)quinazolin-4-yl)amino)pyrrolidin-1-yl)cyclohexyl)-1-(1-(2-(2-(2-((2S,3S)-1-methyl-5-oxo-2-(pyridin-3-yl)pyrrolidine-3-carboxamido)ethoxy)ethoxy)ethyl)piperidin-4-yl)-1H-pyrazole-4-carboxamide]: 6.31 nM.
The same measure for `CC(C)N(C)[C@@H]1CC[C@H](N2CC[C@H](Nc3ncnc4ccc(C(F)(F)F)cc34)C2=O)[C@H](NC(=O)[C@H]2CC[C@H](c3ccc(C(=O)NCCOCCOCCNC(=O)[C@H]4CC(=O)N(C)[C@@H]4c4cccnc4)cn3)CC2)C1` [Example 139, 6-((1R,4r)-4-(((1R,2S,5R)-5-(Isopropyl(methyl)amino)-2-((S)-2-oxo-3-((6-(trifluoromethyl)quinazolin-4-yl)amino)pyrrolidin-1-yl)cyclohexyl)carbamoyl)cyclohexyl)-N-(2-(2-(2-((2S,3S)-1-methyl-5-oxo-2-(pyridin-3-yl)pyrrolidine-3-carboxamido)ethoxy)ethoxy)ethyl)nicotinamide]: 3.98 nM.
The same measure for `CC(C)N(C)[C@@H]1CC[C@H](N2CC[C@H](Nc3ncnc4ccc(C(F)(F)F)cc34)C2=O)[C@H](NC(=O)[C@H]2CC[C@H](NC(=O)CCO[C@H]3CC[C@@H](OCCNC(=O)[C@H]4CC(=O)N(C)[C@@H]4c4cccnc4)CC3)CC2)C1` [Example 114]: 5.77 nM.
Regarding `CC(C)N(C)[C@@H]1CC[C@H](N2CC[C@H](Nc3ncnc4ccc(C(F)(F)F)cc34)C2=O)[C@H](NC(=O)CNC(=O)[C@H]2CC[C@@H](NC(=O)COCCOCCNC(=O)[C@H]3CC(=O)N(C)[C@@H]3c3cccnc3)CC2)C1` [Example 136, (2S,3S)-N-(2-(2-(2-(((1S,4R)-4-((2-(((1R,2S,5R)-5-(Isopropyl(methyl)amino)-2-((S)-2-oxo-3-((6-(trifluoromethyl)quinazolin-4-yl)amino)pyrrolidin-1-yl)cyclohexyl)amino)-2-oxoethyl)carbamoyl)cyclohexyl)amino)-2-oxoethoxy)ethoxy)ethyl)-1-methyl-5-oxo-2-(pyridin-3-yl)pyrrolidine-3-carboxamide], the EC50 was 4.91 nM.
Consider `CC(C)N(C)[C@@H]1CC[C@H](N2CC[C@H](Nc3ncnc4ccc(C(F)(F)F)cc34)C2=O)[C@H](NC(=O)[C@H]2C[C@H](NC(=O)CCOCCNC(=O)CCOCCNC(=O)[C@@H]3CC(=O)N(C)[C@H]3c3cccnc3)C2)C1` [Example 45], for which the EC50 is 3.98 nM.
The figure for `CC(C)N(C)[C@@H]1CC[C@H](N2CC[C@H](Nc3ncnc4ccc(C(F)(F)F)cc34)C2=O)[C@H](NC(=O)C2CCN(c3cnc(NCCOCCOCCNC(=O)[C@H]4CC(=O)N(C)[C@@H]4c4cccnc4)cn3)CC2)C1` [Example 162, N-((1R,2S,5R)-5-(Isopropyl(methyl)amino)-2-((S)-2-oxo-3-((6-(trifluoromethyl)quinazolin-4-yl)amino)pyrrolidin-1-yl)cyclohexyl)-1-(5-((2-(2-(2-((2S,3S)-1-methyl-5-oxo-2-(pyridin-3-yl)pyrrolidine-3-carboxamido)ethoxy)ethoxy)ethyl)amino)pyrazin-2-yl)piperidine-4-carboxamide] is 1.58 nM.
For the compound `CN1C(=O)C[C@H](C(=O)NCCOCCOCCOCCOCCOCCOCCOCCOCCC(=O)N[C@@H]2C[C@H](NC(C)(C)C)CC[C@@H]2N2CC[C@H](Nc3ncnc4ccc(C(F)(F)F)cc34)C2=O)[C@H]1c1cccnc1` [Example 36, (2S,3S)-N-(27-(((1R,2S,5R)-5-(tert-Butylamino)-2-((S)-2-oxo-3-((6-(trifluoromethyl)quinazolin-4-yl)amino)pyrrolidin-1-yl)cyclohexyl)amino)-27-oxo-3,6,9,12,15,18,21,24-octaoxaheptacosyl)-1-methyl-5-oxo-2-(pyridin-3-yl)pyrrolidine-3-carboxamide], the EC50 was 3.98 nM.
`CC(C)N(C)[C@@H]1CC[C@H](N2CC[C@H](Nc3ncnc4ccc(C(F)(F)F)cc34)C2=O)[C@H](NC(=O)COCC(=O)N2CCN(C(=O)N3CCN(C(=O)COCCNC(=O)[C@H]4CC(=O)N(C)[C@@H]4c4cccnc4)CC3)CC2)C1` [Example 84]: the EC50 was 0.213 nM.
